Test results: ChEMBL document CHEMBL1201862, “PubChem BioAssay data set” (2004)
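How tested: cells in 96-well plates exposed to compound for 48 hours at five concentrations. At the GI50, growth is halved.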 Active and inactive are the calls of the source. Rule as the data show it: active = GI50 up to about 1.1 µM and inactive = higher.

What was measured:
Test in all cases: inhibition of tumour cell growth, NCI panel, 48 h
CCRF-CEM = test system: CCRF-CEM
U-251 = test system: U-251
OVCAR-8 = test system: OVCAR-8
IGROV-1 = test system: IGROV-1
SNB-19 = test system: SNB-19
M14 = test system: M14
786-0 = test system: 786-0
SR = test system: SR
OVCAR-5 = test system: OVCAR-5
UO-31 = test system: UO-31
NCI-H226 = test system: NCI-H226
SF-268 = test system: SF-268
HT-29 = test system: HT-29
HOP-62 = test system: HOP-62
SNB-75 = test system: SNB-75
T47D = test system: T47D
MDA-N = test system: MDA-N
UACC-257 = test system: UACC-257
BT-549 = test system: BT-549

| Structure (SMILES) | GI50 (CCRF-CEM) | GI50 (U-251) | GI50 (OVCAR-8) | GI50 (IGROV-1) | GI50 (SNB-19) | GI50 (M14) | GI50 (786-0) | GI50 (SR) | GI50 (OVCAR-5) | GI50 (UO-31) | GI50 (NCI-H226) | GI50 (SF-268) | GI50 (HT-29) | GI50 (HOP-62) | GI50 (SNB-75) | GI50 (T47D) | GI50 (MDA-N) | GI50 (UACC-257) | GI50 (BT-549) |
| --- | --- | --- | --- | --- | --- | --- | --- | --- | --- | --- | --- | --- | --- | --- | --- | --- | --- | --- | --- |
| COc1cc(Cn2c3c(c4c(C(=O)NCCN(C)C)c(O)ccc42)C(=O)c2ccccc2C3=O)cc(OC)c1 | 0.601 µM (active) | 1.64 µM (inactive) | 1.91 µM (inactive) | 1.73 µM (inactive) | 2.51 µM (inactive) | 1.73 µM (inactive) | 0.501 µM (active) | 0.31 µM (active) | 1.67 µM (inactive) | 1.71 µM (inactive) | 6.87 µM (inactive) | 1.99 µM (inactive) | 1.87 µM (inactive) | 2 µM (inactive) | 1.91 µM (inactive) | 1.8 µM (inactive) | 1.63 µM (inactive) | 1.97 µM (inactive) | 2.23 µM (inactive) |
| O=C(Nc1nc2ccc([N+](=O)[O-])cc2[n+]([O-])n1)C(F)(F)F | 26.5 µM (inactive) | 30.2 µM (inactive) | 21 µM (inactive) | 18 µM (inactive) | 49.8 µM (inactive) | 37.3 µM (inactive) | 36.1 µM (inactive) | 29.5 µM (inactive) | 41.8 µM (inactive) | 40.8 µM (inactive) | 49.8 µM (inactive) | 62.4 µM (inactive) | 23.3 µM (inactive) | – | 46.2 µM (inactive) | 35.2 µM (inactive) | 18.7 µM (inactive) | 16.9 µM (inactive) | 94.2 µM (inactive) |
| COc1ccc(C(c2ccccc2)N2C(=O)CCC2C(=O)O)cc1OC (stereo not drawn) | > 100 µM (inactive) | > 100 µM (inactive) | > 100 µM (inactive) | > 100 µM (inactive) | > 100 µM (inactive) | > 100 µM (inactive) | > 100 µM (inactive) | > 100 µM (inactive) | > 100 µM (inactive) | > 100 µM (inactive) | > 100 µM (inactive) | > 100 µM (inactive) | > 100 µM (inactive) | > 100 µM (inactive) | > 100 µM (inactive) | > 100 µM (inactive) | > 100 µM (inactive) | > 100 µM (inactive) | > 100 µM (inactive) |
| CC1OC(NCCNCCNC2OC(C)C(O)C(O)C2O)C(O)C(O)C1O (stereo not drawn) | – | > 100 µM (inactive) | > 100 µM (inactive) | > 100 µM (inactive) | > 100 µM (inactive) | > 100 µM (inactive) | > 100 µM (inactive) | > 100 µM (inactive) | > 100 µM (inactive) | > 100 µM (inactive) | > 100 µM (inactive) | > 100 µM (inactive) | > 100 µM (inactive) | > 100 µM (inactive) | > 100 µM (inactive) | > 100 µM (inactive) | > 100 µM (inactive) | > 100 µM (inactive) | > 100 µM (inactive) |
| Cc1nc2ccc(Cl)cc2c2c1CCN2c1ccccc1 | 5.62 µM (inactive) | 16.4 µM (inactive) | 15 µM (inactive) | 14.3 µM (inactive) | 23.5 µM (inactive) | – | 10.4 µM (inactive) | 14.3 µM (inactive) | – | 8.89 µM (inactive) | 7.89 µM (inactive) | 23 µM (inactive) | 7.18 µM (inactive) | 21.5 µM (inactive) | 23.7 µM (inactive) | 14.5 µM (inactive) | 1.5 µM (inactive) | 15.2 µM (inactive) | 15.3 µM (inactive) |
| COC(=O)C1SC(SC)=NC12c1ccccc1Nc1ccccc12 (stereo not drawn) | 31.8 µM (inactive) | 25.2 µM (inactive) | 33.3 µM (inactive) | 30.3 µM (inactive) | 40.5 µM (inactive) | 18.5 µM (inactive) | 35.2 µM (inactive) | 17.5 µM (inactive) | 54.8 µM (inactive) | 69.2 µM (inactive) | 53.6 µM (inactive) | 37.4 µM (inactive) | 30.8 µM (inactive) | 41.8 µM (inactive) | 51.1 µM (inactive) | 32.2 µM (inactive) | 26.8 µM (inactive) | 25.7 µM (inactive) | 24.7 µM (inactive) |
| CC(C(=O)O)C1Nc2ccccc2NC1=O (stereo not drawn) | 14.2 µM (inactive) | > 100 µM (inactive) | > 100 µM (inactive) | > 100 µM (inactive) | > 100 µM (inactive) | > 100 µM (inactive) | > 100 µM (inactive) | 65.6 µM (inactive) | > 100 µM (inactive) | > 100 µM (inactive) | > 100 µM (inactive) | > 100 µM (inactive) | > 100 µM (inactive) | – | > 100 µM (inactive) | > 100 µM (inactive) | > 100 µM (inactive) | > 100 µM (inactive) | > 100 µM (inactive) |
| Cn1c2ncccc2n2c(=O)cc(O)cc12 | > 100 µM (inactive) | > 100 µM (inactive) | > 100 µM (inactive) | 12.3 µM (inactive) | > 100 µM (inactive) | > 100 µM (inactive) | > 100 µM (inactive) | > 100 µM (inactive) | 88.3 µM (inactive) | 47.2 µM (inactive) | 30.1 µM (inactive) | 54.2 µM (inactive) | 46.6 µM (inactive) | 39.4 µM (inactive) | 24.4 µM (inactive) | 24.1 µM (inactive) | 81.1 µM (inactive) | > 100 µM (inactive) | 94.4 µM (inactive) |
| O=C(NCCSSCCNC(=O)/C(Cc1ccc(O)c(Br)c1)=N/O)/C(Cc1ccc(O)c(Br)c1)=N/O [PSAMMAPLIN A] | 0.377 µM (active) | 1.1 µM (active) | 1.52 µM (inactive) | 1.17 µM (inactive) | 2.08 µM (inactive) | 1.32 µM (inactive) | 2.07 µM (inactive) | 0.38 µM (active) | 2.21 µM (inactive) | 1.74 µM (inactive) | 9.82 µM (inactive) | 1.62 µM (inactive) | 1.35 µM (inactive) | 0.885 µM (active) | 0.889 µM (active) | 3.71 µM (inactive) | 1.6 µM (inactive) | 1.6 µM (inactive) | 6.21 µM (inactive) |
| O=[N+]([O-])c1ccc2c(c1)C(N1CCN(CCO)CC1)Cc1ccc(F)cc1S2 (stereo not drawn) | 3.18 µM (inactive) | 10.1 µM (inactive) | 11.3 µM (inactive) | 3.85 µM (inactive) | 10.7 µM (inactive) | 3.15 µM (inactive) | 12 µM (inactive) | 4.04 µM (inactive) | 13.4 µM (inactive) | 4.39 µM (inactive) | 9.1 µM (inactive) | 13.5 µM (inactive) | 2.49 µM (inactive) | 17.1 µM (inactive) | 2.05 µM (inactive) | 17.4 µM (inactive) | 11 µM (inactive) | 2.57 µM (inactive) | 10.8 µM (inactive) |
| O=C1C(NCCc2ccc(O)c(O)c2)=CC(=O)c2ncccc21 | 3.22 µM (inactive) | 4.3 µM (inactive) | 13.4 µM (inactive) | 9.53 µM (inactive) | 18.5 µM (inactive) | 14.7 µM (inactive) | 15.3 µM (inactive) | 9.98 µM (inactive) | 19.7 µM (inactive) | 11.4 µM (inactive) | 13.7 µM (inactive) | 13.3 µM (inactive) | 30.3 µM (inactive) | 19.2 µM (inactive) | 5.96 µM (inactive) | 22.7 µM (inactive) | 2.03 µM (inactive) | 5.36 µM (inactive) | 4.28 µM (inactive) |
| CCOc1cc(C2CC(c3ccc(NS(=O)(=O)c4cc([N+](=O)[O-])ccc4C)cc3)=NN2c2ccc([N+](=O)[O-])cc2[N+](=O)[O-])ccc1O (stereo not drawn) | 43.7 µM (inactive) | 9.48 µM (inactive) | 5.22 µM (inactive) | 12.5 µM (inactive) | 7.46 µM (inactive) | 12.3 µM (inactive) | 2.58 µM (inactive) | 28.5 µM (inactive) | 23.4 µM (inactive) | 14.6 µM (inactive) | 7.31 µM (inactive) | 11.1 µM (inactive) | 41.6 µM (inactive) | 10.7 µM (inactive) | 5.82 µM (inactive) | 9.68 µM (inactive) | 12.2 µM (inactive) | 19.1 µM (inactive) | 18 µM (inactive) |
| Nc1ncn(C2OC(COP(=O)(O)O)C(O)C2O)c(=O)n1 (stereo not drawn) | 1.87 µM (inactive) | > 100 µM (inactive) | 40.7 µM (inactive) | > 100 µM (inactive) | > 100 µM (inactive) | > 100 µM (inactive) | > 86.3 µM (inactive) | > 91.6 µM (inactive) | > 100 µM (inactive) | > 91.2 µM (inactive) | > 100 µM (inactive) | > 92 µM (inactive) | > 100 µM (inactive) | > 77.4 µM (inactive) | > 100 µM (inactive) | > 100 µM (inactive) | > 100 µM (inactive) | > 100 µM (inactive) | > 100 µM (inactive) |
| COC(=O)C1C(C(=O)OC)C1(Br)CBr (stereo not drawn) | – | > 100 µM (inactive) | 32.5 µM (inactive) | 30.5 µM (inactive) | > 100 µM (inactive) | 31.5 µM (inactive) | 20.4 µM (inactive) | 17.9 µM (inactive) | 25.4 µM (inactive) | 18.4 µM (inactive) | > 100 µM (inactive) | 28.9 µM (inactive) | 24 µM (inactive) | > 100 µM (inactive) | > 100 µM (inactive) | 23.2 µM (inactive) | 63.7 µM (inactive) | > 100 µM (inactive) | 33.1 µM (inactive) |
| CN(C)CCSCCO | – | > 100 µM (inactive) | > 100 µM (inactive) | > 100 µM (inactive) | > 100 µM (inactive) | > 100 µM (inactive) | > 100 µM (inactive) | > 100 µM (inactive) | > 100 µM (inactive) | > 100 µM (inactive) | > 100 µM (inactive) | > 100 µM (inactive) | > 100 µM (inactive) | > 100 µM (inactive) | > 100 µM (inactive) | > 100 µM (inactive) | > 100 µM (inactive) | > 100 µM (inactive) | > 100 µM (inactive) |
